# Entries after “also recorded” stand apart in the source; their conditions may differ.
# Tests used:
# mice = experiment: Acute toxicity (LD50) in mice, i.p.; type: in vivo
# brain ischemia = experiment: Brain focal ischemia, water content of hemisphere (brain edema); type: in vivo, rat; settings: 0.14 mg/kg i.v. thirty minutes prior to ischemic insult; 1 hour focal ischemia
# Method: (§1) (a) Surgical procedures: Adults male Sprague-Dwaley rats weighing 250-300 g were used in these studies. Anesthesia was induced and maintained with halothane (1.0-2.5%) via closely fitted facial mask. Bilateral common carotid arteries (CCA) were exposed gently and the right CCA was ligated in two places by 4-0 silk suture. To expose the right middle cerebral artery (MCA), the temporal muscles were cut and retracted, then, a small temporal craniotomy (2=2 mm) was performed with a microdrill. Under a microscope, the dura matter was opened with a 26 guage needle, and the MCA was ligated by 10-0 suture with a square knot. Immediately, the left CCA was occluded by a microaneurysmal clip. After the operation, the animal was returned to the cage. One hour later, the left CCA clip was released under awake condition. The sham-operated control was produced in a similar procedure, except for the ligation and clipping of vessels. The operation was usually finished within 30 min.
# (b) Water content and ionic analysis: After fixed time interval (1, 3, and 7 days), the animal was sacrificed and the excised cerebral hemispheres were placed in preweighed crucible and measured an wet weight (W.W) with a chemical balance (Mettler, AE 100). […] The water content (% wet weight) was calculated by (W.W -D.W)/W.W. […]
# brain focal ischemia = experiment: Brain focal ischemia, motor performance test; type: in vivo, rat; settings: 0.14 mg/kg
# Method: as §1, with “The sham-operated control was produced in a similar procedure, except for the ligation and clipping of vessels. The operation was usually finished within 30 min.” left out
# (c) Motor performance test: The disturbance of motor function was evaluated by the total score obtained from inclined plate test, balance beam test and prehensile test. These motor performance tests were dsesigned to quantify the motor weakness in the global ischemia rats. […] The animal was placed at the highest position of the plate and the time which it could stay on the plate was measured untill 30 sec. […] The time spent on the rod was recorded untill 30 sec. […] The time spent in hanging on the rope was measured untill 30 sec. […]
# sickle red blood cells = experiment: Formation of irreversibly sickled cells by sickling-unsickling cycling in vitro; type: cell-based
# From the text: The inventor previously developed a method to produce irreversibly sickled cells (ISC, which have irreversibly denatured membranes) by exposing sickle red blood cells to a repeated sickling-unsickling cycling in vitro. He used this system to determine the efficacy of a drug in protecting cell membranes (Ohnishi, Br. J. Haematol. 55:665-671, 1983). […] These heavy cells were collected, the amount measured, and the percentage of production calculated (Table 3). As shown in the Table, MR-103 inhibited the formation of irreversibly denatured cells at an extremely low concentration. Even at 20 nM, it inhibited the production of denatured cell almost 50%. […] The subfragment comound MR-117 was also found to have a remarkable effect (Table 4). At a concentration of 60 nM, it inhibited the formation of denatured cells by more than 50%.
smiles,measurement,setting,value
CSCC[C@@H]1NC(=O)[C@H](CS)NC(=O)[C@H](CCCCN)NC(=O)CNC(=O)[C@H](CCCNC(=N)N)NC(=O)[C@H](CO)NC(=O)[C@H]([C@@H](C)O)NC(=O)[C@H](CC(N)=O)NC(=O)[C@H](Cc2c[nH]cn2)NC(=O)[C@H](CC(C)C)NC(=O)[C@H](CCCNC(=N)N)NC(=O)[C@H](CCC(N)=O)NC(=O)[C@@H]2CSSC[C@@H](C(=O)N[C@@H](Cc3ccc(O)cc3)C(=O)N[C@@H](CO)C(=O)O)NC(=O)[C@H](CCCNC(=N)N)NC(=O)[C@H](CSSC[C@H](N)C(=O)N[C@@H](Cc3c[nH]c4ccccc34)C(=O)N[C@@H](CO)C(=O)N[C@@H](C(C)C)C(=O)N2)NC(=O)[C@H](CCCCN)NC(=O)[C@H](CCCCN)NC(=O)[C@H](CC(N)=O)NC1=O [MR-117],Acute toxicity (LD50),mice,0.92 mg/kg
same,increase of water content of ischemia-exposed hemisphere,brain ischemia,inhibited the increase of water content; also recorded: much reduced
same,effect on motor performance after brain focal ischemia (in words),"brain focal ischemia; 1 hour focal ischemia, 3 and 7 days",remarkable recovery effect
same,Motor Score,"brain focal ischemia; 3 days after ischemia, scale 0-12, no drug 6.93, sham 11.13",9.50 ± 0.56
same,Irreversibly sickling cells,sickle red blood cells; 60 nM drug during cycling,14.8 percentages
same,Reversibly sickling cells,sickle red blood cells; 60 nM drug during cycling,85.2 percentages
same,Irreversibly sickling cells,sickle red blood cells; 100 nM drug during cycling,10.3 percentages
same,Reversibly sickling cells,sickle red blood cells; 100 nM drug during cycling,89.7 percentages
same,Irreversibly sickling cells,sickle red blood cells; 200 nM drug during cycling,0 percentages
same,Reversibly sickling cells,sickle red blood cells; 200 nM drug during cycling,100 percentages

# From patent US5006512A, “Therapeutic usages of inhibitors for a potassium efflux channel” (priority 1988, dated 1991)
